Test results from ChEMBL document CHEMBL1629430, “2'-deoxy-2'-α-fluoro-2'-β-C-methyl 3',5'-cyclic phosphate nucleotide prodrug analogs as inhibitors of HCV NS5B polymerase: discovery of PSI-352938” (Bioorg Med Chem Lett, 2010).

Assays:
[1] = tested on: Hepatitis C virus; assay: Antiviral activity against Hepatitis C virus -infected in human HuH7 cells; format: functional, Hepacivirus hominis, Huh-7
[2] = Mitochondrial toxicity in human CEM cells; format: cell-based; settings: CEM cells (CCRF-CEM)
[3] = Half life in human liver S9 fraction; format: ADME, subcellular; settings: read-out: Stability (converted)
[4] = tested on: Hepatitis C virus; assay: Antiviral activity against wild-type Hepatitis C virus -infected in human HuH7 cells; format: functional, Hepacivirus hominis, Huh-7
[5] = Half life in human plasma; format: ADME, cell-free; settings: read-out: Stability (converted)
[6] = tested on: Hepatitis C virus; assay: Antiviral activity against Hepatitis C virus harboring NS5B S282T mutant -infected in human HuH7 cells; format: functional, Hepacivirus hominis, Huh-7
[7] = Half life of the compound in simulated intestinal fluid; format: physicochemical; settings: for half-life: simulated intestinal fluid, read-out: Stability
[8] = Cytotoxicity against human HepG2 cells; format: cell-based
[9] = Mitochondrial toxicity in human HepG2 cells; format: cell-based
[10] = tested on: Rattus norvegicus; assay: AUC (0 to 24 hrs) in rat liver assessed as 2'-Deoxy-2'-alpha-F-2'-beta-C-methyl guanosine triphosphate level at 50 mg/kg, po; format: ADME, organism-based; parameters: time < 24 hr, dose 50 mg/kg, route oral; settings: in vivo
[11] = tested on: Liver; assay: AUC (0 to 24 hrs) in rat liver; format: ADME, tissue-based; parameters: time < 24 hr; settings: in vivo
[12] = Cytotoxicity against human CEM cells; format: cell-based; settings: CEM cells (CCRF-CEM)
[13] = Cytotoxicity against human HuH7 cells; format: cell-based, Huh-7
[14] = tested on: Hepatocyte; assay: Drug level in human hepatocytes assessed as cellular triphosphate level at 100 uM after 72 hrs by HPLC method; format: ADME, cell-based
[15] = Half life of the compound in simulated gastrointestinal fluid; format: physicochemical; settings: read-out: Stability (converted)
[16] = Drug level in Hepatitis C virus -infected human HuH7 cells assessed as cellular triphosphate level at 100 uM after 72 hrs by HPLC method; format: ADME, cell-based; settings: huh-7, 72 h
[17] = tested on: Rattus norvegicus; assay: Cmax in rat liver assessed as 2'-Deoxy-2'-alpha-F-2'-beta-C-methyl guanosine triphosphate level at 50 mg/kg, po; format: ADME, organism-based; parameters: dose 50 mg/kg, route oral; settings: in vivo
[18] = Cytotoxicity against human BxPC3 cells; format: cell-based, BXPC-3
[19] = biological target: RNA-directed RNA polymerase (Hepacivirus hominis, UniProt O39930); assay: Inhibition of HCV NS5B polymerase
Chain of RNA-directed RNA polymerase (O39930 whole entry): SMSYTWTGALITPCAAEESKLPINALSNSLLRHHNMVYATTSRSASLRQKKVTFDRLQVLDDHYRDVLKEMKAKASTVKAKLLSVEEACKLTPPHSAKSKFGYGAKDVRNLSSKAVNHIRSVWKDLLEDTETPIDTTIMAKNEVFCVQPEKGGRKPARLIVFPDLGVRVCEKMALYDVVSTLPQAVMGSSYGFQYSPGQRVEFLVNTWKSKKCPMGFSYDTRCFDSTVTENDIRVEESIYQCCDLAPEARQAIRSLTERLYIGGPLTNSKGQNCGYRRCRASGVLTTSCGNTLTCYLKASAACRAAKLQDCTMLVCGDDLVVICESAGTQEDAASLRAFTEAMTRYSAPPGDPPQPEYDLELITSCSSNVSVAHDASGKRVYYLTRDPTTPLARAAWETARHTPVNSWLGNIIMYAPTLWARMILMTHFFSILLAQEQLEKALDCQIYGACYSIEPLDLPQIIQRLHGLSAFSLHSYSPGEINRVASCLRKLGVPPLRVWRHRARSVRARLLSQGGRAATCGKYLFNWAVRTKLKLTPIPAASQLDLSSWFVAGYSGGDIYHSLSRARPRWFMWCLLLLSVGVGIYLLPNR

`CC(C)O[P@@]1(=O)OC[C@H]2O[C@@H](n3cnc4c(N5CCC5)nc(N)nc43)[C@](C)(F)[C@@H]2O1` showed an EC90 ([1]; Hepatitis C virus, Huh-7) of 18.6 µM.

Molecule `CCOc1nc(N)nc2c1ncn2[C@@H]1O[C@@H]2COP(=O)(OC)O[C@H]2[C@@]1(C)F` (stereo partly drawn) has a CC50 [2] greater than 100 µM, a half-life [3] greater than 24 h and an EC90 ([4]; Hepatitis C virus, Huh-7) of 0.41 µM. The half-life [5] was 8.88 h, the EC90 ([6]; Hepatitis C virus, Huh-7) was 0.4 µM and the half-life [7] was greater than 20 h. The CC50 [8] was 95 µM, the CC50 [9] was greater than 100 µM and the AUC [10] was 4090 ng·h/g. For the same molecule, the AUC [11] was 8310 ng·h/g, the CC50 [12] was greater than 100 µM and the CC50 [13] was greater than 30 µM. The EC90 ([1]; Hepatitis C virus, Huh-7) was 0.41 µM, the Drug uptake [14] was 0.12 mM and the half-life [15] was greater than 20 h. It also gave a Drug uptake [16] of 0.08 mM, a Cmax [17] of 613 ng/g and a CC50 [18] greater than 100 µM.

Molecule `CCCOc1nc(N)nc2c1ncn2[C@@H]1O[C@@H]2CO[P@](=O)(OCCC)O[C@H]2[C@@]1(C)F` (stereo in doubt; 26b) has a CC50 [13] greater than 11 µM and an EC90 [1] of 5.27 µM.

Molecule `COP1(=O)OC[C@H]2O[C@@H](n3cnc4c(NC5CCC5)nc(N)nc43)[C@](C)(F)[C@@H]2O1` (stereo partly drawn) has an EC90 ([1]; Hepatitis C virus, Huh-7) of 1.56 µM.

With `CO[P@@]1(=O)OC[C@H]2O[C@@H](n3cnc4c(O)nc(N)nc43)[C@](C)(F)[C@@H]2O1` the CC50 [13] was greater than 65 µM and the EC90 ([1]; Hepatitis C virus, Huh-7) was 11.8 µM.

`CCOc1nc(N)nc2c1ncn2[C@@H]1O[C@@H]2CO[P@](=O)(OC(C)C)O[C@H]2[C@@]1(C)F` (stereo in doubt; 24a) showed a CC50 [2] greater than 100 µM, a half-life [3] greater than 24 h and an EC90 ([4]; Hepatitis C virus, Huh-7) of 1.37 µM. It also gave a half-life [5] greater than 24 h, an EC90 ([6]; Hepatitis C virus, Huh-7) of 1.61 µM and a half-life [7] greater than 20 h. The CC50 [8] was greater than 100 µM, the CC50 [9] was greater than 100 µM and the AUC [10] was 41893 ng·h/g. It also gave an AUC [11] of 13234 ng·h/g, a CC50 [12] greater than 100 µM and a CC50 [13] greater than 100 µM. The EC90 ([1]; Hepatitis C virus, Huh-7) was 1.37 µM, the Drug uptake [14] was 0.59 mM and the half-life [15] was greater than 20 h. For the same molecule, the Drug uptake [16] was 0.41 mM and the CC50 [18] was greater than 100 µM.

In the case of `CCOc1nc(N)nc2c1ncn2[C@@H]1O[C@@H]2CO[P@](=O)(OC(C)C)O[C@H]2[C@@]1(C)F` (stereo in doubt; 24b), the EC90 [4] is reported as 0.69 µM, the EC90 [6] is reported as 0.86 µM and the Stability ([7]; simulated gi fluid) is reported as 18 h. It also gave an EC90 [1] of 0.69 µM.

`COP1(=O)OC[C@H]2O[C@@H](n3cnc4c(NC5CCCC5)nc(N)nc43)[C@](C)(F)[C@@H]2O1` (stereo partly drawn) gave an EC90 ([1]; Hepatitis C virus, Huh-7) of 7.2 µM.

Work on `COP1(=O)OC[C@H]2O[C@@H](n3cnc4c(N5CCC5)nc(N)nc43)[C@](C)(F)[C@@H]2O1` (stereo partly drawn) yielded a CC50 [2] greater than 100 µM, a half-life [3] of 2.53 h and an EC90 ([4]; Hepatitis C virus, Huh-7) of 0.98 µM. It also gave a half-life [5] of 8.33 h, an EC90 ([6]; Hepatitis C virus, Huh-7) of 1.53 µM and a half-life [7] greater than 20 h. The CC50 [8] was greater than 100 µM, the CC50 [9] was greater than 100 µM and the CC50 [12] was greater than 100 µM. The CC50 [13] was greater than 30 µM, the EC90 ([1]; Hepatitis C virus, Huh-7) was 0.98 µM and the half-life [15] was greater than 20 h. The CC50 [18] was greater than 100 µM.

In the case of `CCO[P@@]1(=O)OC[C@H]2O[C@@H](n3cnc4c(N5CCC5)nc(N)nc43)[C@](C)(F)[C@@H]2O1`, the EC90 ([1]; Hepatitis C virus, Huh-7) is reported as 69.2 µM.

`C[C@@]1(F)[C@@H]2O[P@@](=O)(Oc3ccccc3)OC[C@H]2O[C@H]1n1cnc2c(N3CCC3)nc(N)nc21` gave an EC90 ([1]; Hepatitis C virus, Huh-7) of 7.7 µM.

In the case of `CCCCNc1nc(N)nc2c1ncn2[C@@H]1O[C@@H]2COP(=O)(OC(C)C)O[C@H]2[C@@]1(C)F` (single isomer, unassigned), the EC90 ([1]; Hepatitis C virus, Huh-7) is reported as 9.28 µM.

With `C[C@@]1(F)[C@@H]2O[P@@](=O)(OC3CCC3)OC[C@H]2O[C@H]1n1cnc2c(N3CCC3)nc(N)nc21` the EC90 ([1]; Hepatitis C virus, Huh-7) was 7.3 µM.

In the case of `C[C@@]1(F)[C@H](O)[C@@H](CO)O[C@H]1n1cnc2c(O)nc(N)nc21`, the EC90 ([1]; Hepatitis C virus, Huh-7) is reported as 69 µM.

Work on `CCCCNc1nc(N)nc2c1ncn2[C@@H]1O[C@@H]2COP(=O)(Oc3ccccc3)O[C@H]2[C@@]1(C)F` (single isomer, unassigned) yielded an EC90 ([1]; Hepatitis C virus, Huh-7) of 4.76 µM.

For `CCOc1nc(N)nc2c1ncn2[C@@H]1O[C@@H]2COP(=O)(Oc3ccccc3)O[C@H]2[C@@]1(C)F` (stereo partly drawn), the EC90 ([1]; Hepatitis C virus, Huh-7) was 1.72 µM.

`COP1(=O)OC[C@H]2O[C@@H](n3cnc4c(OCc5ccccc5)nc(N)nc43)[C@](C)(F)[C@@H]2O1` (stereo partly drawn) gave an EC90 ([1]; Hepatitis C virus, Huh-7) of 5.05 µM.

For `CCCCNc1nc(N)nc2c1ncn2[C@@H]1O[C@@H]2COP(=O)(OCC)O[C@H]2[C@@]1(C)F` (single isomer, unassigned), the EC90 ([1]; Hepatitis C virus, Huh-7) was 48.1 µM.

`CCCNc1nc(N)nc2c1ncn2[C@@H]1O[C@@H]2COP(=O)(OC)O[C@H]2[C@@]1(C)F` (stereo partly drawn) gave a CC50 [2] greater than 100 µM, a half-life [3] greater than 24 h and an EC90 ([4]; Hepatitis C virus, Huh-7) of 0.92 µM. The half-life [5] was 15.7 h, the EC90 ([6]; Hepatitis C virus, Huh-7) was 3.08 µM and the half-life [7] was greater than 20 h. For the same molecule, the CC50 [8] was greater than 100 µM, the CC50 [9] was 14 µM and the CC50 [12] was greater than 100 µM. For the same molecule, the CC50 [13] was greater than 30 µM, the EC90 ([1]; Hepatitis C virus, Huh-7) was 0.92 µM and the half-life [15] was 4 h. For the same molecule, the CC50 [18] was greater than 100 µM.

In the case of `C[C@@]1(F)[C@H](O)[C@@H](COP(=O)(O)OP(=O)(O)OP(=O)(O)O)O[C@H]1n1cnc2c(=O)[nH]c(N)nc21` [PSI-352666], the IC50 [19] is reported as 5.94 µM and the CC50 [13] is reported as greater than 100 µM.

With `CCCOc1nc(N)nc2c1ncn2[C@@H]1O[C@@H]2CO[P@](=O)(OCCC)O[C@H]2[C@@]1(C)F` (stereo in doubt; 26a) the EC90 [1] was 23.8 µM.

For `CC(C)C(=O)OC[C@H]1O[C@@H](n2ccc(N)nc2=O)[C@](C)(F)[C@@H]1OC(=O)C(C)C` [MERICITABINE], the CC50 [13] was greater than 100 µM and the EC90 ([1]; Hepatitis C virus, Huh-7) was 3.9 µM.

With `CCCOc1nc(N)nc2c1ncn2[C@@H]1O[C@@H]2COP(=O)(OC)O[C@H]2[C@@]1(C)F` (stereo partly drawn) the CC50 [13] was greater than 30 µM and the EC90 ([1]; Hepatitis C virus, Huh-7) was 0.83 µM.
